Reference: US8017611B2, “Pyridine and pyrazine derivatives -083” (AstraZeneca AB, priority 2007, dated 2011)
Read-outs that look alike come from different tables or passages of the source.

Molecular target: T1, recombinant Axl tyrosine kinase (Homo sapiens, UniProt P30530)
T1 construct: encompassing amino acids 473 to 894 of Axl; GST (N); made in house; host or cells: SF126 insect cells
T1 sequence (P30530 473-894): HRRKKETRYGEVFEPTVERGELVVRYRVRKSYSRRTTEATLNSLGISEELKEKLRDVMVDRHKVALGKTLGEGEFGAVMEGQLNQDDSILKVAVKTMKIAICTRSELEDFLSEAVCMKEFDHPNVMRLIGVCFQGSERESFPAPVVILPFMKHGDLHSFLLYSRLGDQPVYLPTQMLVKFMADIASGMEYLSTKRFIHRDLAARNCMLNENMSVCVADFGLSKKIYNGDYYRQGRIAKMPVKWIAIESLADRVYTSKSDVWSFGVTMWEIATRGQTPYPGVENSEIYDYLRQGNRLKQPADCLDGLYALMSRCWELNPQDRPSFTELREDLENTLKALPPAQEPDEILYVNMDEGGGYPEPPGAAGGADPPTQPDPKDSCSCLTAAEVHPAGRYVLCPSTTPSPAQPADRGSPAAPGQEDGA
Assay: In vitro Axl kinase assay (AlphaScreen), Test (a)
Type: biochemical
Protocol: Test compounds were prepared as 10 mM stock solutions in dimethylsulphoxide (DMSO) and diluted in DMSO as required. Aliquots (120 nl) of compound dilutions were filled into the wells of a Greiner 384-well low volume (LV) white polystyrene plate (Greiner Bio-one) using acoustic dispensing (Labcyte Echo 550). A 10 μl mixture of recombinant purified Axl enzyme, biotinylated peptide substrate (Biotin poly-GAT; CisBio, Catalogue No. 61GATBLB), 0.2 μM adenosine triphosphate (ATP) and a buffer solution [comprising 20 mM Tris-HCl pH 7.5 buffer, 0.01% v/v Tween, 5 mM dithiothreitol (DTT) and 10 mM manganese chloride] was incubated with the compounds at room temperature for 20 minutes.
Control wells that produced a minimum signal corresponding to 100% inhibited enzyme were created by adding 10 μM of Staurosporine.
The percentage kinase inhibition value is the percentage of Axl tyrosine kinase activity inhibited by the test compound at a concentration of 1 μM.

[1] = test compound at 1 μM, first value quoted
[2] = test compound at 1 μM, first value quoted, read-out: % Axl tyrosine kinase inhibition at 1 μM concentration
[3] = 1 μM, mean calculated from a larger number of replicates than the first value
[4] = 1 μM, mean calculated from a larger number of replicates than the first value, read-out: % Axl tyrosine kinase inhibition at 1 μM concentration (second value, †)

SMILES | % Axl tyrosine kinase inhibition at 1 μM concentration [1] [%] | further results
Nc1ncc(-c2cccc(C(=O)NCCN3CCOCC3)c2)cc1-c1nc2cccnc2o1 [Example 9A.22] | 81.9 | –
Nc1ncc(-c2cnn(C3CCNCC3)c2)cc1-c1nc2ncccc2o1 [Example 10, 3-Oxazolo[4,5-b]pyridin-2-yl-5-[1-(4-piperidyl)pyrazol-4-yl]pyridin-2-amine] | – | inhibition at 1 µM [2]: 98.8%
Nc1ncc(-c2cccc(N3CCOCC3)c2)cc1-c1nc2ncccc2o1 [Example 10A.1] | 55.3 | % Axl tyrosine kinase inhibition at 1 μM concentration (second value, †) [3]: 52.6%
Nc1ncc(-c2cccc(C(=O)NCCN3CCOCC3)c2)cc1-c1nc2ncccc2o1 [Example 10A.2] | 63.9 | –
CC(C)(C)OC(=O)N1CCC(C(=O)Nc2cccc(-c3cnc(N)c(-c4nc5ncccc5o4)c3)c2)CC1 [Example 10A.3] | 87.2 | –
NCc1ccc(-c2cnc(N)c(-c3nc4ncccc4o3)c2)cc1 [Example 10A.4] | 99.0 | –
Nc1ncc(-c2ccc(C(=O)NCCO)cc2)cc1-c1nc2ncccc2o1 [Example 10A.5] | 91.4 | –
Nc1ncc(-c2cccc(CN3CCCC3)c2)cc1-c1nc2ncccc2o1 [Example 10A.7] | 95.9 | –
CN1CCN(C(=O)c2cccc(-c3cnc(N)c(-c4nc5ncccc5o4)c3)c2)CC1 [Example 10A.8] | 57.4 | –
Nc1ncc(-c2cccc(C(=O)NCCN3CCCC3)c2)cc1-c1nc2ncccc2o1 [Example 10A.9] | 82.5 | –
Nc1ncc(-c2cccc(CN3CCCCC3)c2)cc1-c1nc2ncccc2o1 [Example 10A.11] | 88.4 | –
CN(C)CCCNC(=O)c1ccc(-c2cnc(N)c(-c3nc4ncccc4o3)c2)cc1 [Example 10A.12] | 99.0 | –
Nc1ncc(-c2ccc(C(=O)N3CCC(O)CC3)cc2)cc1-c1nc2ncccc2o1 [Example 10A.13] | 91.1 | –
Nc1ncc(-c2ccc(C(=O)N3CCOCC3)cc2)cc1-c1nc2ncccc2o1 [Example 10A.14] | 92.7 | –
CN(C)CCNC(=O)c1ccc(-c2cnc(N)c(-c3nc4ncccc4o3)c2)cc1 [Example 10A.15, 4-(6-amino-5-oxazolo[4,5-b]pyridin-2-yl-3-pyridyl)-N-(2-dimethylaminoethyl)benzamide] | – | inhibition at 1 µM [2]: 98.4%
Nc1ncc(-c2cccc(N3CCCCC3)c2)cc1-c1nc2ncccc2o1 [Example 10A.17] | 40.3 | –
Nc1ncc(-c2ccc(CO)s2)cc1-c1nc2ncccc2o1 [Example 10A.19] | 90.1 | –

SMILES | % Axl tyrosine kinase inhibition at 1 μM concentration [1] [%] | further results
Nc1ncc(-c2cnn(C3CCNCC3)c2)cc1-c1nc2ccncc2o1 [Example 11, 3-Oxazolo[5,4-c]pyridin-2-yl-5-[1-(4-piperidyl)pyrazol-4-yl]pyridin-2-amine] | – | inhibition at 1 µM [2]: 99%
C[N+]1([O-])CCC(n2cc(-c3cnc(N)c(-c4nc5ccccc5o4)c3)cn2)CC1 (centres unmarked) [Example 12, 3-(1,3-Benzoxazol-2-yl)-5-[1-(1-methyl-1-oxido-piperidin-1-ium-4-yl)pyrazol-4-yl]pyridin-2-amine] | – | inhibition at 1 µM [2]: 90.6%
CC(C)(C)OC(=O)N1CCC(n2cc(-c3cnc(N)c(-c4nc5ccccc5s4)c3)cn2)CC1 [Example 13, tert-butyl 4-[4-[6-Amino-5-(1,3-benzothiazol-2-yl)-3-pyridyl]pyrazol-1-yl]piperidine-1-carboxylate] | – | inhibition at 1 µM [4]: 99%; inhibition at 1 µM [2]: 95.4%
CC(C)(C)OC(=O)N1CCC(n2cc(-c3cnc(N)c(-c4nc5ccccc5o4)n3)cn2)CC1 [Example 15, Tert-butyl 4-[4-[5-amino-6-(1,3-benzoxazol-2-yl)pyrazin-2-yl]pyrazol-1-yl]piperidine-1-carboxylate] | – | inhibition at 1 µM [4]: 99.4%; inhibition at 1 µM [2]: 93.1%
CN1CCC(n2cc(-c3cnc(N)c(-c4nc5ccccc5s4)c3)cn2)CC1 [Example 16, 3-(1,3-Benzothiazol-2-yl)-5-[1-(1-methyl-4-piperidyl)pyrazol-4-yl]pyridin-2-amine] | – | inhibition at 1 µM [2]: 99.8%
Nc1ncc(-c2cnn(C3CCNCC3)c2)nc1-c1nc2ccccc2o1 [Example 17, 3-(1,3-Benzoxazol-2-yl)-5-[1-(4-piperidyl)pyrazol-4-yl]pyrazin-2-amine] | – | inhibition at 1 µM [2]: 99.6%
Nc1ncc(-c2cnn(C3CCNCC3)c2)nc1-c1nc2ccc(F)cc2o1 [Example 17A.1, 3-(6-fluoro-1,3-benzoxazol-2-yl)-5-[1-(4-piperidyl)pyrazol-4-yl]pyrazin-2-amine] | – | inhibition at 1 µM [2]: 98.5%
CN1CCC(n2cc(-c3cnc(N)c(-c4nc5ccccc5o4)n3)cn2)CC1 [Example 18, 3-(1,3-benzoxazol-2-yl)-5-[1-(1-methyl-4-piperidyl)pyrazol-4-yl]pyrazin-2-amine] | – | inhibition at 1 µM [2]: 99.3%
Nc1ncc(-c2cnn(C3CCNCC3)c2)nc1-c1nc2ccccc2s1 [Example 19, 3-(1,3-Benzothiazol-2-yl)-5-[1-(4-piperidyl)pyrazol-4-yl]pyrazin-2-amine] | – | inhibition at 1 µM [2]: 99.6%
Nc1ncc(-c2cccc(N3CCNCC3)c2)nc1-c1nc2ccccc2o1 [Example 20.2] | 99.6 | % Axl tyrosine kinase inhibition at 1 μM concentration (second value, †) [3]: 99.3%
Nc1ncc(-c2ccc(N3CCNCC3)nc2)nc1-c1nc2ccccc2o1 [Example 20.3] | 99.3 | % Axl tyrosine kinase inhibition at 1 μM concentration (second value, †) [3]: 98.7%
Nc1ncc(-c2cccc(N3CCCCC3)c2)nc1-c1nc2ccccc2o1 [Example 20.4] | 89.2 | –
Nc1ncc(-c2cccc(N3CCCC3)c2)nc1-c1nc2ccccc2o1 [Example 20.5] | 85.6 | –
Nc1ncc(-c2ccc(CN3CCOCC3)cc2)nc1-c1nc2ccccc2o1 [Example 20.6] | 99.1 | % Axl tyrosine kinase inhibition at 1 μM concentration (second value, †) [3]: 99.2%
CN1CCN(c2ccc(-c3cnc(N)c(-c4nc5ccccc5o4)n3)cn2)CC1 [Example 20.7] | 99.6 | –
Nc1ncc(-c2cccc(N3CCOCC3)c2)nc1-c1nc2ccccc2o1 [Example 20.8] | 98.9 | –
Nc1ncc(-c2cccc(CN3CCOCC3)c2)nc1-c1nc2ccccc2o1 [Example 20.10] | 99.1 | –

Further lines, with some results ahead:

% Axl tyrosine kinase inhibition at 1 μM concentration [1] [%] | SMILES | further results
37.8 | Nc1ncc(-c2cccc(C(=O)NC3CC3)c2)cc1-c1nc2ncccc2o1 [Example 10A.6] | –
90.0 | Nc1ncc(-c2cccc(S(=O)(=O)NC3CC3)c2)cc1-c1nc2ncccc2o1 [Example 10A.10] | –
99.9 | COCc1cccc(-c2cnc(N)c(-c3nc4ncccc4o3)c2)c1 [Example 10A.16] | –
84.7 | CN(C)CCNC(=O)c1cccc(-c2cnc(N)c(-c3nc4ncccc4o3)c2)c1 [Example 10A.18] | –
99.6 | Nc1ncc(-c2ccc(CN3CCOCC3)cc2)cc1-c1nc2ccncc2o1 [Example 11A.1] | % Axl tyrosine kinase inhibition at 1 μM concentration (second value, †) [3]: 99.4%
97.5 | Nc1ncc(-c2ccc(C(=O)N3CCC(O)CC3)cc2)cc1-c1nc2ccncc2o1 [Example 11A.2] | –
87.7 | CC(C)(C)OC(=O)N1CCC(C(=O)Nc2cccc(-c3cnc(N)c(-c4nc5ccncc5o4)c3)c2)CC1 [Example 11A.3] | –
97.4 | Nc1ncc(-c2cccc(CN3CCCC3)c2)cc1-c1nc2ccncc2o1 [Example 11A.5] | –
90.0 | Nc1ncc(-c2cccc(N3CCCCC3)c2)cc1-c1nc2ccncc2o1 [Example 11A.6] | –
80.3 | Nc1ncc(-c2cccc(C(=O)NC3CC3)c2)cc1-c1nc2ccncc2o1 [Example 11A.7] | –
39.6 | CNS(=O)(=O)c1cccc(-c2cnc(N)c(-c3nc4ccncc4o3)c2)c1 [Example 11A.8] | –
99.3 | CC(C)(C)OC(=O)NCc1cccc(-c2cnc(N)c(-c3nc4ccncc4o3)c2)c1 [Example 11A.9] | –
93.7 | Nc1ncc(-c2cccc(N3CCOCC3)c2)cc1-c1nc2ccncc2o1 [Example 11A.12] | –
91.8 | CN(C)S(=O)(=O)c1cccc(-c2cnc(N)c(-c3nc4ccccc4o3)n2)c1 [Example 20.1] | –
92.1 | CS(=O)(=O)c1cccc(-c2cnc(N)c(-c3nc4ccccc4o3)n2)c1 [Example 20.9] | –
